{
  "source": "patent US20230082929A1",
  "about": "“METHODS OF GENERATING AND USING SENESCENT-INDUCED CELLS FOR TREATMENT OF CANCER AND COMPOSITIONS RELATING THERETO” (The Wistar Institute of Anatomy and Biology, priority 2020, published 2023)",
  "key": {"TOP1cc": {"molecular_target": "T1, TOP1cc (Mus musculus, UniProt Q04750)", "T1 construct": "endogenous in cells; host or cells: UPK10 mouse ovarian cancer cells, sorted senescent and non-senescent fractions", "T1 sequence (Q04750 1-767)": "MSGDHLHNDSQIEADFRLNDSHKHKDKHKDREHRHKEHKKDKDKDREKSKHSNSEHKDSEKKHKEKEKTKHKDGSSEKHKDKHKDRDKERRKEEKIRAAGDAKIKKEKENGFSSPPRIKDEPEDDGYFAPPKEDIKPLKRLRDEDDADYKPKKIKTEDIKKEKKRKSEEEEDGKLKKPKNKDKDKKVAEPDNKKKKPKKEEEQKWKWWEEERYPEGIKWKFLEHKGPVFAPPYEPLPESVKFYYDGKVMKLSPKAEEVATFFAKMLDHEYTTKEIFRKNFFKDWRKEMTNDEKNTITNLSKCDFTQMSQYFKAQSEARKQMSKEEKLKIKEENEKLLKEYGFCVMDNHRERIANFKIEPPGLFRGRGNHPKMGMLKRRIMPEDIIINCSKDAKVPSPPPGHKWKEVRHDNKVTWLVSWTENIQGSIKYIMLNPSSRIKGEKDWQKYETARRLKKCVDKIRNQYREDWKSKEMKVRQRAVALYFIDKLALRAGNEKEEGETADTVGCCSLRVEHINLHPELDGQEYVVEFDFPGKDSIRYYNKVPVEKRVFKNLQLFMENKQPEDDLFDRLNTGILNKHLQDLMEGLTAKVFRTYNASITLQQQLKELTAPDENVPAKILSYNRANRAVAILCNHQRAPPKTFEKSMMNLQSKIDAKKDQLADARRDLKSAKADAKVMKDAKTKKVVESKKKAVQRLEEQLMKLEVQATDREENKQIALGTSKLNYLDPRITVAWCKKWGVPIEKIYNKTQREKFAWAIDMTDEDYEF", "experiment": "Slot blot analysis of TOP1cc levels in CCF of senescent ID8-Defb29/Vegf-a cells", "assay_type": "cell-based", "conditions": "HMGB2 knockdown Cisplatin-induced senescent ID8-Defb29 Vegf-a cells", "description": "A CCF purification protocol was developed by modifying previous protocols (Shimizu et al., 1996; Ly et al., 2017). Briefly, 500 million senescent cells were collected, resuspended, and incubated in DMEM containing 10 μg/mL cytochalasin B for 30 minutes at 37° C. After wash once with ice-cold PBS, the cell pellet was gently dounce homogenized in ice-cold pre-chilled lysis buffer (10 mM Tris-HCl, 2 mM magnesium acetate, 3 mM CaCl2), 0.32 M sucrose, 0.1 mM EDTA, 1 mM DTT, 0.1% NP-40, 0.15 mM spermine, 0.75 mM spermidine, 10 μg/ml cytochalasin B, pH 8.5, 4° C.) with ten slow strokes of a loose-fitting pestle. Release of nuclei was confirmed by DAPI-staining and microscopy. The homogenate was fixed with 1% formaldehyde for 10 minutes, and mixed well with an equal volume of 1.6M sucrose buffer (10 mM Tris-HCl, 5 mM magnesium acetate, 0.1 mM EDTA, 1 mM DTT, 0.3% BSA, 0.15 mM spermine, 0.75 mM spermidine, pH 8.0, 4° C.). A 10 mL portion of homogenate was layered on the top of sucrose buffer gradient (20 mL and 15 mL containing 1.8M and 1.6M of sucrose, respectively) in a 50 mL tissue culture tube. The tubes were centrifuged at 1200×g for 20 minutes at 4° C. After centrifugation, the upper 3 mL of the gradient was discarded, and the next 15 mL containing CCFs was collected. […] DNA concentration was measured using Nanodrop and 5 μg DNA was used for slot blot analysis."}, "cGAS": {"tested_on": "cGAS", "experiment": "cGAS localization into CCF by immunofluorescence", "assay_type": "cell-based, human", "conditions": "HMGB2 knockout cells", "description": "Cells were fixed with 4% paraformaldehyde (PFA) for 15 mins at room temperature followed by permeabilization with 0.2% Triton X-100 in PBS for 5 min. For DNase I digestion, after fixation and permeabilization, cells were treated with 500 units/mL RNase-Free DNase I (Qiagen, Cat. No: 79254) for one hour at 37° C. After blocking with 1% BSA in PBS, cells were incubated with primary antibody overnight at 4° C. and Alexa-Fluor conjugated secondary antibody (Life Technologies). Fluorescent images were captured using Leica TCS SP5 II scanning confocal microscope."}, "STING": {"tested_on": "STING", "experiment": "STING dimerization by immunoblot in IMR90 cells", "assay_type": "cell-based, human", "conditions": "senescent IMR90 cells with HMGB2 knockdown", "description": "Cells were lysed in 1× sample buffer (2% SDS, 10% glycerol, 0.01% bromophenol blue, 62.5 mM Tris, pH 6.8, and 0.1 M DTT) and heated to 95° C. for 10 min. Protein concentrations were determined using the protein assay dye (Bio-Rad. Cat. No: #5000006) and Nanodrop. An equal amount of total protein was resolved using SDS-PAGE gels and transferred to PVDF membranes at 110 V for 2 hours at 4° C. Membranes were blocked with 5% nonfat milk in TBS containing 0.1% Tween 20 (TBS-T) for 1 hour at room temperature. Membranes were incubated overnight at 4° C. in the primary antibodies in 4% BSA/TBS+0.025% sodium azide. Membranes were washed four times in TBS-T for 5 min at room temperature, after which they were incubated with HRP-conjugated secondary antibodies (Cell Signaling Technology. Cat. No: 7076S, 7074S) for 1 hour at room temperature. After washing four times in TBS-T for 5 min at room temperature, proteins were visualized on film after incubation with SuperSignal West Pico PLUS Chemiluminescent Substrate (Thermo Fisher Scientific. Cat. No: 34580)."}},
  "data": [
    {"molecule": "CC[C@@]1(O)C(=O)OCc2c1cc1n(c2=O)Cc2cc3ccccc3nc2-1", "note": "[CPT, Camptothecin]", "values": [
      {"measurement": "TOP1cc levels in CCF", "setting": "TOP1cc", "value": "Rescue of the decrease in TOP1cc levels"},
      {"measurement": "localization of cGAS and TOP1cc into CCF", "setting": "cGAS", "value": "rescue of the localization of cGAS and TOP1cc into CCF"},
      {"measurement": "STING dimerization", "setting": "STING", "value": "rescued the suppression of STING dimerization"}
    ]}
  ]
}
